Laboratory results from paper PMC9358669, “Native metabolomics identifies the rivulariapeptolide family of protease inhibitors” (Nature Communications, 2022).
Where two headings read alike, the source gives them in different places.

Legend:
[1] = molecular target: T1, Proteinase K (Parengyodontium album, UniProt P06873); experiment: Proteinase K inhibition, fluorogenic substrate assay (Suc-Ala-Ala-Pro-Phe-AMC); assay type: biochemical, Tritirachium album; conditions: for IC50 / Mean (RFU/s): 40 min pre-incubation; for IC50: mean, n = 3; for Mean (RFU/s): Proteinase K
T1 construct: purchased Roche
T1 sequence (P06873 106-384): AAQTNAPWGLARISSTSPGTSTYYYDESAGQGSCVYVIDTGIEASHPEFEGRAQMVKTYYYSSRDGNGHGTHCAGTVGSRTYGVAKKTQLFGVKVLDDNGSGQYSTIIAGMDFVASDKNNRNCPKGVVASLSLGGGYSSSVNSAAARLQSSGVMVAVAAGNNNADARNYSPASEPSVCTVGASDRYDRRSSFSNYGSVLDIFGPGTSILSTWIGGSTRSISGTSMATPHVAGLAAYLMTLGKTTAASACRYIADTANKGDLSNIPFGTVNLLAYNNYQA

[2] = molecular target: T2, Chymotrypsin (Bos taurus, UniProt P00766); experiment: Chymotrypsin inhibition, fluorogenic substrate assay (Suc-Ala-Ala-Pro-Phe-AMC); assay type: biochemical; conditions: for Mean (RFU/s): Chymotrypsin; for fold increase in potency towards chymotrypsin: molassamide B (6) compared to molassamide (5)
T2 construct: purchased Sigma-Aldrich

[3] = molecular target: T3, Elastase (Sus scrofa, UniProt P00772); experiment: Elastase inhibition, fluorogenic substrate assay (MeOSuc-Ala-Ala-Pro-Val-AMC); assay type: biochemical, Sus domesticus; conditions: for IC50 / Mean (RFU/s): 40 min pre-incubation; for IC50: mean, n = 3; for Mean (RFU/s): Elastase
T3 construct: purchased Sigma-Aldrich
T3 sequence (P00772 27-266): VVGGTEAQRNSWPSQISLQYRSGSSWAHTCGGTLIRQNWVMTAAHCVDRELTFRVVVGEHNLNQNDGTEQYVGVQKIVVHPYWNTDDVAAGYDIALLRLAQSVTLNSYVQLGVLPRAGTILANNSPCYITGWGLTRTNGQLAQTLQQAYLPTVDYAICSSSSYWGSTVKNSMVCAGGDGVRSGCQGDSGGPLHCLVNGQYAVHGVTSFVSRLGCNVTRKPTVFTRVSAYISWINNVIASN

[4] = inhibitor concentration 0.0508053 nM
[5] = inhibitor concentration 0.152416 nM
[6] = inhibitor concentration 0.457247 nM
[7] = inhibitor concentration 1.37174 nM
[8] = inhibitor concentration 4.11523 nM
[9] = inhibitor concentration 12.3457 nM
[10] = inhibitor concentration 37.037 nM
[11] = inhibitor concentration 111.111 nM
[12] = inhibitor concentration 333.333 nM
[13] = inhibitor concentration 1000 nM
[14] = inhibitor concentration 3000 nM
[15] = molassamide B (6) compared to molassamide (5)
[16] = 40 min pre-incubation, mean, n = 3, read-out: IC50 Chymotrypsin
[17] = inhibitor concentration 0.0508053 nM, 40 min pre-incubation
[18] = inhibitor concentration 0.152416 nM, 40 min pre-incubation
[19] = inhibitor concentration 0.457247 nM, 40 min pre-incubation
[20] = inhibitor concentration 1.37174 nM, 40 min pre-incubation
[21] = inhibitor concentration 4.11523 nM, 40 min pre-incubation
[22] = inhibitor concentration 12.3457 nM, 40 min pre-incubation
[23] = inhibitor concentration 37.037 nM, 40 min pre-incubation
[24] = inhibitor concentration 111.111 nM, 40 min pre-incubation
[25] = inhibitor concentration 333.333 nM, 40 min pre-incubation
[26] = inhibitor concentration 1000 nM, 40 min pre-incubation
[27] = inhibitor concentration 3000 nM, 40 min pre-incubation
[28] = Supplementary Table 5, compounds of this study, read-out: Chymotrypsin IC50

SMILES: C/C=C1\NC(=O)[C@@H](NC(=O)[C@@H](NC(=O)[C@H](C)NC(=O)CCC)[C@@H](C)O)[C@@H](C)OC(=O)[C@H](C(C)C)NC(=O)[C@H](Cc2ccc(O)c(Br)c2)N(C)C(=O)[C@H](Cc2ccccc2)N2C(=O)[C@H](CC[C@H]2O)NC1=O [Molassamide B, molassamide B]
- IC50 [1]: 0.00542 µM
- Mean (RFU/s) [1, 4]: 6.3 RFU/s
- Mean (RFU/s) [1, 5]: 6.284 RFU/s
- Mean (RFU/s) [1, 6]: 6.22 RFU/s
- Mean (RFU/s) [1, 7]: 5.564 RFU/s
- Mean (RFU/s) [1, 8]: 3.825 RFU/s
- Mean (RFU/s) [1, 9]: 1.43 RFU/s
- Mean (RFU/s) [1, 10]: 0.3433 RFU/s
- Mean (RFU/s) [1, 11]: 0.1 RFU/s
- Mean (RFU/s) [1, 12]: 0.03367 RFU/s
- Mean (RFU/s) [1, 13]: 0 RFU/s
- Mean (RFU/s) [1, 14]: 0 RFU/s
- fold increase in potency towards proteinase K [1, 15]: four
- IC50 [2, 16]: 0.0246 µM
- Mean (RFU/s) [2, 17]: 5.208 RFU/s
- Mean (RFU/s) [2, 18]: 5.061 RFU/s
- Mean (RFU/s) [2, 19]: 5.116 RFU/s
- Mean (RFU/s) [2, 20]: 5.104 RFU/s
- Mean (RFU/s) [2, 21]: 4.681 RFU/s
- Mean (RFU/s) [2, 22]: 3.888 RFU/s
- Mean (RFU/s) [2, 23]: 1.754 RFU/s
- Mean (RFU/s) [2, 24]: 0.844 RFU/s
- Mean (RFU/s) [2, 25]: 0.3123 RFU/s
- Mean (RFU/s) [2, 26]: 0.1157 RFU/s
- Mean (RFU/s) [2, 27]: 0 RFU/s
- IC50 [2, 28]: 0.0247 µM
- fold increase in potency towards chymotrypsin [2]: thirtyfive
- fold increase in potency towards chymotrypsin ([2]; listed as 6): 35 fold
- IC50 [3]: 0.0117 µM
- Mean (RFU/s) [3, 4]: 0.846 RFU/s
- Mean (RFU/s) [3, 5]: 0.8437 RFU/s
- Mean (RFU/s) [3, 6]: 0.8327 RFU/s
- Mean (RFU/s) [3, 7]: 0.7837 RFU/s
- Mean (RFU/s) [3, 8]: 0.677 RFU/s
- Mean (RFU/s) [3, 9]: 0.418 RFU/s
- Mean (RFU/s) [3, 10]: 0.1113 RFU/s
- Mean (RFU/s) [3, 11]: 0.024 RFU/s
- Mean (RFU/s) [3, 12]: 0 RFU/s
- Mean (RFU/s) [3, 13]: 0 RFU/s
- Mean (RFU/s) [3, 14]: 0 RFU/s
- fold increase in potency towards elastase [3, 15]: three

SMILES: CC=C1NC(=O)[C@@H](NC(=O)[C@@H](NC(=O)[C@@H]2CCCN2C(=O)CCC)[C@@H](C)O)[C@@H](C)OC(=O)[C@H](C(C)C)NC(=O)[C@H](Cc2ccc(O)cc2)N(C)C(=O)[C@H](Cc2ccccc2)N2C(=O)[C@H](CC[C@H]2O)NC1=O [Rivulariapeptolide 988, rivulariapeptolide 988]
- IC50 [1]: 0.0855 µM
- Mean (RFU/s) [1, 4]: 6.083 RFU/s
- Mean (RFU/s) [1, 5]: 6.104 RFU/s
- Mean (RFU/s) [1, 6]: 6.172 RFU/s
- Mean (RFU/s) [1, 7]: 5.959 RFU/s
- Mean (RFU/s) [1, 8]: 5.86 RFU/s
- Mean (RFU/s) [1, 9]: 5.64 RFU/s
- Mean (RFU/s) [1, 10]: 4.799 RFU/s
- Mean (RFU/s) [1, 11]: 2.395 RFU/s
- Mean (RFU/s) [1, 12]: 0.4403 RFU/s
- Mean (RFU/s) [1, 13]: 0.07367 RFU/s
- Mean (RFU/s) [1, 14]: 0.022 RFU/s
- IC50 [2, 16]: 0.0955 µM
- Mean (RFU/s) [2, 17]: 4.956 RFU/s
- Mean (RFU/s) [2, 18]: 4.945 RFU/s
- Mean (RFU/s) [2, 19]: 5.008 RFU/s
- Mean (RFU/s) [2, 20]: 5.099 RFU/s
- Mean (RFU/s) [2, 21]: 4.694 RFU/s
- Mean (RFU/s) [2, 22]: 4.587 RFU/s
- Mean (RFU/s) [2, 23]: 3.41 RFU/s
- Mean (RFU/s) [2, 24]: 2.381 RFU/s
- Mean (RFU/s) [2, 25]: 1.135 RFU/s
- Mean (RFU/s) [2, 26]: 0.4203 RFU/s
- Mean (RFU/s) [2, 27]: 0.1363 RFU/s
- IC50 [2, 28]: 0.0955 µM
- IC50 [3]: 0.0153 µM
- Mean (RFU/s) [3, 4]: 0.804 RFU/s
- Mean (RFU/s) [3, 5]: 0.8127 RFU/s
- Mean (RFU/s) [3, 6]: 0.808 RFU/s
- Mean (RFU/s) [3, 7]: 0.7693 RFU/s
- Mean (RFU/s) [3, 8]: 0.661 RFU/s
- Mean (RFU/s) [3, 9]: 0.463 RFU/s
- Mean (RFU/s) [3, 10]: 0.2057 RFU/s
- Mean (RFU/s) [3, 11]: 0.065 RFU/s
- Mean (RFU/s) [3, 12]: 0.018 RFU/s
- Mean (RFU/s) [3, 13]: 0 RFU/s
- Mean (RFU/s) [3, 14]: 0 RFU/s

SMILES: CC=C1NC(=O)[C@@H](NC(=O)[C@@H](NC(=O)[C@@H]2CCCN2C(=O)CCC)[C@@H](C)OC(=O)C2CCCN2C(=O)CCC)[C@@H](C)OC(=O)[C@H](C(C)C)NC(=O)[C@H](Cc2ccc(O)cc2)N(C)C(=O)[C@H](CC(C)C)N2C(=O)[C@H](CC[C@H]2O)NC1=O (some centres unmarked) [Rivulariapeptolide 1121, rivulariapeptolide 1121]
- IC50 [1]: 0.048 µM
- Mean (RFU/s) [1, 4]: 6.561 RFU/s
- Mean (RFU/s) [1, 5]: 6.281 RFU/s
- Mean (RFU/s) [1, 6]: 6.268 RFU/s
- Mean (RFU/s) [1, 7]: 6.292 RFU/s
- Mean (RFU/s) [1, 8]: 6.214 RFU/s
- Mean (RFU/s) [1, 9]: 5.471 RFU/s
- Mean (RFU/s) [1, 10]: 4.069 RFU/s
- Mean (RFU/s) [1, 11]: 0.93 RFU/s
- Mean (RFU/s) [1, 12]: 0.1023 RFU/s
- Mean (RFU/s) [1, 13]: 0 RFU/s
- Mean (RFU/s) [1, 14]: 0 RFU/s
- IC50 [2, 16]: 0.0355 µM
- Mean (RFU/s) [2, 17]: 4.522 RFU/s
- Mean (RFU/s) [2, 18]: 4.745 RFU/s
- Mean (RFU/s) [2, 19]: 4.969 RFU/s
- Mean (RFU/s) [2, 20]: 4.65 RFU/s
- Mean (RFU/s) [2, 21]: 4.6 RFU/s
- Mean (RFU/s) [2, 22]: 4.156 RFU/s
- Mean (RFU/s) [2, 23]: 1.852 RFU/s
- Mean (RFU/s) [2, 24]: 1.527 RFU/s
- Mean (RFU/s) [2, 25]: 0.623 RFU/s
- Mean (RFU/s) [2, 26]: 0.1967 RFU/s
- Mean (RFU/s) [2, 27]: 0 RFU/s
- IC50 [2, 28]: 0.0355 µM
- IC50 [3]: 0.0132 µM
- Mean (RFU/s) [3, 4]: 0.8433 RFU/s
- Mean (RFU/s) [3, 5]: 0.7923 RFU/s
- Mean (RFU/s) [3, 6]: 0.7877 RFU/s
- Mean (RFU/s) [3, 7]: 0.7943 RFU/s
- Mean (RFU/s) [3, 8]: 0.7343 RFU/s
- Mean (RFU/s) [3, 9]: 0.4323 RFU/s
- Mean (RFU/s) [3, 10]: 0.094 RFU/s
- Mean (RFU/s) [3, 11]: 0.02167 RFU/s
- Mean (RFU/s) [3, 12]: 0 RFU/s
- Mean (RFU/s) [3, 13]: 0 RFU/s
- Mean (RFU/s) [3, 14]: 0 RFU/s

SMILES: CC=C1NC(=O)[C@@H](NC(=O)[C@@H](NC(=O)[C@@H]2CCCN2C(=O)CCC)[C@@H](C)OC(=O)C2CCCN2C(=O)CCC)[C@@H](C)OC(=O)[C@H](C(C)C)NC(=O)[C@H](Cc2ccc(O)cc2)N(C)C(=O)[C@H](Cc2ccccc2)N2C(=O)[C@H](CC[C@H]2O)NC1=O (some centres unmarked) [Rivulariapeptolide 1155, rivulariapeptolide 1155]
- IC50 [1]: 0.0565 µM
- Mean (RFU/s) [1, 4]: 6.603 RFU/s
- Mean (RFU/s) [1, 5]: 6.245 RFU/s
- Mean (RFU/s) [1, 6]: 6.403 RFU/s
- Mean (RFU/s) [1, 7]: 6.159 RFU/s
- Mean (RFU/s) [1, 8]: 6.088 RFU/s
- Mean (RFU/s) [1, 9]: 5.497 RFU/s
- Mean (RFU/s) [1, 10]: 4.358 RFU/s
- Mean (RFU/s) [1, 11]: 1.504 RFU/s
- Mean (RFU/s) [1, 12]: 0.363 RFU/s
- Mean (RFU/s) [1, 13]: 0.09033 RFU/s
- Mean (RFU/s) [1, 14]: 0.027 RFU/s
- IC50 [2, 16]: 0.0418 µM
- Mean (RFU/s) [2, 17]: 5.293 RFU/s
- Mean (RFU/s) [2, 18]: 5.198 RFU/s
- Mean (RFU/s) [2, 19]: 5.411 RFU/s
- Mean (RFU/s) [2, 20]: 5.774 RFU/s
- Mean (RFU/s) [2, 21]: 4.968 RFU/s
- Mean (RFU/s) [2, 22]: 4.399 RFU/s
- Mean (RFU/s) [2, 23]: 2.874 RFU/s
- Mean (RFU/s) [2, 24]: 1.339 RFU/s
- Mean (RFU/s) [2, 25]: 0.494 RFU/s
- Mean (RFU/s) [2, 26]: 0.1737 RFU/s
- Mean (RFU/s) [2, 27]: 0 RFU/s
- IC50 [2, 28]: 0.0418 µM
- IC50 [3]: 0.00494 µM
- Mean (RFU/s) [3, 4]: 0.9773 RFU/s
- Mean (RFU/s) [3, 5]: 0.8963 RFU/s
- Mean (RFU/s) [3, 6]: 0.839 RFU/s
- Mean (RFU/s) [3, 7]: 0.7733 RFU/s
- Mean (RFU/s) [3, 8]: 0.5503 RFU/s
- Mean (RFU/s) [3, 9]: 0.1703 RFU/s
- Mean (RFU/s) [3, 10]: 0.054 RFU/s
- Mean (RFU/s) [3, 11]: 0 RFU/s
- Mean (RFU/s) [3, 12]: 0 RFU/s
- Mean (RFU/s) [3, 13]: 0 RFU/s
- Mean (RFU/s) [3, 14]: 0 RFU/s
